# Test system: MCH receptors
# Assay: MCH receptor activity class (method not given)
# Conditions: activity class 1-3: percent of control at 10^-7 M or IC50
row,SMILES,class
1,CN(C)c1ccnc(N[C@H]2CC[C@@H](NC[C@@H](COCc3ccccc3)OCc3ccccc3)CC2)n1 [compound 1521],3 (Class 3 The value of percent of control at 10^−7 M was more than 60% or the value of IC50 was more than 200 nM.)
2,COc1cc2ccccc2cc1CN[C@H]1CC[C@@H](Nc2nccc(N(C)C)n2)CC1 [compound 1522],3 (Class 3 The value of percent of control at 10^−7 M was more than 60% or the value of IC50 was more than 200 nM.)
3,Cc1cccc(N(CCC#N)CCN[C@H]2CC[C@@H](Nc3nccc(N(C)C)n3)CC2)c1 [compound 1523],3 (Class 3 The value of percent of control at 10^−7 M was more than 60% or the value of IC50 was more than 200 nM.)
4,CN(C)c1ccnc(N[C@H]2CC[C@@H](NCCN(CCC#N)c3ccccc3)CC2)n1 [compound 1524],3 (Class 3 The value of percent of control at 10^−7 M was more than 60% or the value of IC50 was more than 200 nM.)
5,COc1ccc(CCCCNC[C@H]2CC[C@@H](Nc3nccc(N(C)C)n3)CC2)cc1 [compound 1525],3 (Class 3 The value of percent of control at 10^−7 M was more than 60% or the value of IC50 was more than 200 nM.)
6,CN(C)c1ccnc(N[C@H]2CC[C@@H](CNCCCCCCc3ccccc3)CC2)n1 [compound 1526],3 (Class 3 The value of percent of control at 10^−7 M was more than 60% or the value of IC50 was more than 200 nM.)
7,Cc1cc(C)c(CCNC[C@H]2CC[C@@H](Nc3nccc(N(C)C)n3)CC2)c(C)c1 [compound 1527],3 (Class 3 The value of percent of control at 10^−7 M was more than 60% or the value of IC50 was more than 200 nM.)
8,CN(C)c1ccnc(N[C@H]2CC[C@@H](CNCCCCCCCCc3ccccc3)CC2)n1 [compound 1528],3 (Class 3 The value of percent of control at 10^−7 M was more than 60% or the value of IC50 was more than 200 nM.)
9,CN(C)c1ccnc(N[C@H]2CC[C@@H](CNCCc3ccc(C(C)(C)C)cc3)CC2)n1 [compound 1529],3 (Class 3 The value of percent of control at 10^−7 M was more than 60% or the value of IC50 was more than 200 nM.)
10,CN(C)c1ccnc(N[C@H]2CC[C@@H](CNCCCC#Cc3ccccc3)CC2)n1 [compound 1530],3 (Class 3 The value of percent of control at 10^−7 M was more than 60% or the value of IC50 was more than 200 nM.)
11,COc1ccccc1CCNC[C@H]1CC[C@@H](Nc2nccc(N(C)C)n2)CC1 [compound 1531],3 (Class 3 The value of percent of control at 10^−7 M was more than 60% or the value of IC50 was more than 200 nM.)
12,CN(C)c1ccnc(N[C@H]2CC[C@@H](CNCCCOc3ccccc3)CC2)n1 [compound 1532],3 (Class 3 The value of percent of control at 10^−7 M was more than 60% or the value of IC50 was more than 200 nM.)
13,CN(C)c1ccnc(N[C@H]2CC[C@@H](CNCc3c(F)c(F)cc(F)c3F)CC2)n1 [compound 1533],3 (Class 3 The value of percent of control at 10^−7 M was more than 60% or the value of IC50 was more than 200 nM.)
14,CN(C)c1ccnc(N[C@H]2CC[C@@H](CNCc3cc(Cl)ccc3Cl)CC2)n1 [compound 1534],3 (Class 3 The value of percent of control at 10^−7 M was more than 60% or the value of IC50 was more than 200 nM.)
15,COc1ccc(Cl)cc1CNC[C@H]1CC[C@@H](Nc2nccc(N(C)C)n2)CC1 [compound 1535],3 (Class 3 The value of percent of control at 10^−7 M was more than 60% or the value of IC50 was more than 200 nM.)
16,COc1cc(Cl)ccc1CNC[C@H]1CC[C@@H](Nc2nccc(N(C)C)n2)CC1 [compound 1536],3 (Class 3 The value of percent of control at 10^−7 M was more than 60% or the value of IC50 was more than 200 nM.)
17,Cc1ccc(CNC[C@H]2CC[C@@H](Nc3nccc(N(C)C)n3)CC2)cc1I [compound 1537],3 (Class 3 The value of percent of control at 10^−7 M was more than 60% or the value of IC50 was more than 200 nM.)
18,C[C@@H](CNC[C@H]1CC[C@@H](Nc2nccc(N(C)C)n2)CC1)N(Cc1ccccc1)Cc1ccccc1 [compound 1538],3 (Class 3 The value of percent of control at 10^−7 M was more than 60% or the value of IC50 was more than 200 nM.)
19,CN(C)c1cc(N[C@H]2CC[C@@H](NC(=O)OCCOCc3ccccc3)CC2)nc2ccccc12 [compound 1539],3 (Class 3 The value of percent of control at 10^−7 M was more than 60% or the value of IC50 was more than 200 nM.)
20,CN(C)c1cc(N[C@H]2CC[C@@H](NC(=O)OCC(C)(C)C)CC2)nc2ccccc12 [compound 1540],3 (Class 3 The value of percent of control at 10^−7 M was more than 60% or the value of IC50 was more than 200 nM.)
21,"COc1cc(COC(=O)NC2CCC(Nc3cc(N(C)C)c4ccccc4n3)CC2)c([N+](=O)[O-])cc1OC (stereo not shown) [compound 1541, “[4-(4-Dimethylamino-quinolin-2-ylamino)-cyclohexyl]-carbamic acid 4,5-dimethoxy-2-nitro-benzyl ester]",2 (Class 2: The value of percent of control at 10^−7 M was from 40% to 60% or the value of IC′50 was from 50 nM to 200 nM.)
22,CN(C)c1cc(N[C@H]2CC[C@@H](NC(=O)Oc3cccc(C(F)(F)F)c3)CC2)nc2ccccc12 [compound 1542],3 (Class 3 The value of percent of control at 10^−7 M was more than 60% or the value of IC50 was more than 200 nM.)

row,SMILES,class
1,CN(C)c1cc(N[C@H]2CC[C@@H](NC(=O)Oc3ccc(Br)cc3)CC2)nc2ccccc12 [compound 1543],3 (Class 3 The value of percent of control at 10^−7 M was more than 60% or the value of IC50 was more than 200 nM.)
2,COc1ccccc1OC(=O)N[C@H]1CC[C@@H](Nc2cc(N(C)C)c3ccccc3n2)CC1 [compound 1544],3 (Class 3 The value of percent of control at 10^−7 M was more than 60% or the value of IC50 was more than 200 nM.)
3,COCCOC(=O)N[C@H]1CC[C@@H](Nc2cc(N(C)C)c3ccccc3n2)CC1 [compound 1545],3 (Class 3 The value of percent of control at 10^−7 M was more than 60% or the value of IC50 was more than 200 nM.)
4,CCCCCCCCOC(=O)N[C@H]1CC[C@@H](Nc2cc(N(C)C)c3ccccc3n2)CC1 [compound 1546],3 (Class 3 The value of percent of control at 10^−7 M was more than 60% or the value of IC50 was more than 200 nM.)
5,CCOC(=O)N[C@H]1CC[C@@H](Nc2cc(N(C)C)c3ccccc3n2)CC1 [compound 1547],3 (Class 3 The value of percent of control at 10^−7 M was more than 60% or the value of IC50 was more than 200 nM.)
6,CN(C)c1cc(NC2CCC(NC(=O)OCc3ccc([N+](=O)[O-])cc3)CC2)nc2ccccc12 (stereo not shown) [compound 1548],3 (Class 3 The value of percent of control at 10^−7 M was more than 60% or the value of IC50 was more than 200 nM.)
7,CN(C)c1cc(N[C@H]2CC[C@@H](NC(=O)Oc3ccc4ccccc4c3)CC2)nc2ccccc12 [compound 1549],3 (Class 3 The value of percent of control at 10^−7 M was more than 60% or the value of IC50 was more than 200 nM.)
8,C=CCOC(=O)N[C@H]1CC[C@@H](Nc2cc(N(C)C)c3ccccc3n2)CC1 [compound 1550],3 (Class 3 The value of percent of control at 10^−7 M was more than 60% or the value of IC50 was more than 200 nM.)
9,CN(C)c1cc(NC2CCC(NC(=O)OCc3ccccc3)CC2)nc2ccccc12 (stereo not shown) [compound 1551],3 (Class 3 The value of percent of control at 10^−7 M was more than 60% or the value of IC50 was more than 200 nM.)
10,CN(C)c1cc(N[C@H]2CC[C@@H](NC(=O)Oc3ccccc3)CC2)nc2ccccc12 [compound 1552],3 (Class 3 The value of percent of control at 10^−7 M was more than 60% or the value of IC50 was more than 200 nM.)
11,CC(C)[C@@H]1CC[C@@H](C)C[C@H]1OC(=O)N[C@H]1CC[C@@H](Nc2cc(N(C)C)c3ccccc3n2)CC1 [compound 1553],3 (Class 3 The value of percent of control at 10^−7 M was more than 60% or the value of IC50 was more than 200 nM.)
12,Cc1ccc(OC(=O)N[C@H]2CC[C@@H](Nc3cc(N(C)C)c4ccccc4n3)CC2)cc1 [compound 1554],3 (Class 3 The value of percent of control at 10^−7 M was more than 60% or the value of IC50 was more than 200 nM.)
13,COC(=O)N[C@H]1CC[C@@H](Nc2cc(N(C)C)c3ccccc3n2)CC1 [compound 1555],3 (Class 3 The value of percent of control at 10^−7 M was more than 60% or the value of IC50 was more than 200 nM.)
14,CN(C)c1cc(N[C@H]2CC[C@@H](NC(=O)OCc3ccccc3Cl)CC2)nc2ccccc12 [compound 1556],3 (Class 3 The value of percent of control at 10^−7 M was more than 60% or the value of IC50 was more than 200 nM.)
15,CN(C)c1cc(N[C@H]2CC[C@@H](NC(=O)OCC3c4ccccc4-c4ccccc43)CC2)nc2ccccc12 [compound 1557],3 (Class 3 The value of percent of control at 10^−7 M was more than 60% or the value of IC50 was more than 200 nM.)
16,CN(C)c1cc(N[C@H]2CC[C@@H](NC(=O)OCC(Cl)(Cl)Cl)CC2)nc2ccccc12 [compound 1558],3 (Class 3 The value of percent of control at 10^−7 M was more than 60% or the value of IC50 was more than 200 nM.)
17,CN(C)c1cc(N[C@H]2CC[C@@H](CNC(=O)OCCOCc3ccccc3)CC2)nc2ccccc12 [compound 1559],3 (Class 3 The value of percent of control at 10^−7 M was more than 60% or the value of IC50 was more than 200 nM.)
18,CN(C)c1cc(N[C@H]2CC[C@@H](CNC(=O)OCC(C)(C)C)CC2)nc2ccccc12 [compound 1560],3 (Class 3 The value of percent of control at 10^−7 M was more than 60% or the value of IC50 was more than 200 nM.)
19,COc1cc(COC(=O)NC[C@H]2CC[C@@H](Nc3cc(N(C)C)c4ccccc4n3)CC2)c([N+](=O)[O-])cc1OC [compound 1561],3 (Class 3 The value of percent of control at 10^−7 M was more than 60% or the value of IC50 was more than 200 nM.)
20,CN(C)c1cc(N[C@H]2CC[C@@H](CNC(=O)Oc3cccc(C(F)(F)F)c3)CC2)nc2ccccc12 [compound 1562],3 (Class 3 The value of percent of control at 10^−7 M was more than 60% or the value of IC50 was more than 200 nM.)
21,CN(C)c1cc(N[C@H]2CC[C@@H](CNC(=O)Oc3ccc(Br)cc3)CC2)nc2ccccc12 [compound 1563],3 (Class 3 The value of percent of control at 10^−7 M was more than 60% or the value of IC50 was more than 200 nM.)

# Reference: patent US20050197350A1, “Novel quinoline, tetrahydroquinazoline, and pyrimidine derivatives and methods of treatment related to the use thereof” (TAISHO PHARMACEUTICAL CO., LTD., priority 2003, published 2005)
